Measurements published in patent US9085555B2, “Complement pathway modulators and uses thereof” (priority 2011, dated 2015).

These compounds were tested against Factor D (Homo sapiens (Human), UniProt P00746) (assay: biochemical). Conditions: read-out: IC50.
Type: biochemical

Factor D, sequence (P00746 26-253): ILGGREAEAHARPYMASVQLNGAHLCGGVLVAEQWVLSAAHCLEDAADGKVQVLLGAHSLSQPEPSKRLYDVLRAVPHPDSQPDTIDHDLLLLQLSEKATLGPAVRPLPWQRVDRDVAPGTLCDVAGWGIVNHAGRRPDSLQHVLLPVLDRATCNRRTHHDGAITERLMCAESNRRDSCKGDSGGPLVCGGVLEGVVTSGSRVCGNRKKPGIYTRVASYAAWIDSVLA

Point of comparison: NCc1ccc(-c2cccc(NC(=O)[C@@H]3CCCN3C(=O)Nc3cn(C(N)=O)c4ccccc34)c2)cc1 [Example 400, (S)-Pyrrolidine-1,2-dicarboxylic acid 2-[(4′-aminomethyl-biphenyl-3-yl)-amide]1-[(1-carbamoyl-1H-indol-3-yl)-amide]], IC50 3950 nM. Against it:
- NC(=O)n1cc(NC(=O)N2CCS[C@H]2C(=O)NCc2cccc(Cl)c2F)c2cc(OCCO)ccc21 [Example 380, S)-Thiazolidine-2,3-dicarboxylic acid 3-{[1-carbamoyl-5-(2-hydroxy-ethoxy)-1H-indol-3-yl]-amide}2-(3-chloro-2-fluoro-benzylamide] — 230-fold lower, 17 nM
- NC(=O)n1cc(NC(=O)N2[C@@H]3C[C@@H]3C[C@H]2C(=O)Nc2cccc(OC(F)(F)F)c2)c2cc(OCCO)ccc21 [Example 381, (1R,3S,5R)-2-Aza-bicyclo[3.1.0]hexane-2,3-dicarboxylic acid 2-{[1-carbamoyl-5-(2-hydroxy-ethoxy)-1H-indol-3-yl]-amide}3-[(3-trifluoromethoxy-phenyl)-amide]] — 69-fold lower, 57 nM
- C[C@@]1(F)C[C@@H](C(=O)NCc2cccc(Cl)c2F)N(C(=O)Nc2cn(C(N)=O)c3ccc(OCCO)cc23)C1 [Example 383, 2S,4R)-4-Fluoro-4-methyl-pyrrolidine-1,2-dicarboxylic acid 1-{[1-carbamoyl-5-(2-hydroxy-ethoxy)-1H-indol-3-yl]-amide}2-(3-chloro-2-fluoro-benzylamide] — 990-fold lower, 4 nM
- NC(=O)n1cc(NC(=O)N2[C@@H]3C[C@@H]3C[C@H]2C(=O)NCc2cccc(Cl)c2F)c2ccc(CCO)cc21 [Example 384, 1R,3S,5R)-2-Aza-bicyclo[3.1.0]hexane-2,3-dicarboxylic acid 2-{[1-carbamoyl-6-(2-hydroxy-ethyl)-1H-indol-3-yl]-amide}3-(3-chloro-2-fluoro-benzylamide] — 120-fold lower, 32 nM
- NC(=O)n1cc(NC(=O)N2[C@@H]3C[C@@H]3C[C@H]2C(=O)NCc2cccc(Cl)c2F)c2cc(CCO)ccc21 [Example 385, 1R,3S,5R)-2-Aza-bicyclo[3.1.0]hexane-2,3-dicarboxylic acid 2-{[1-carbamoyl-5-(2-hydroxy-ethyl)-1H-indol-3-yl]-amide}3-(3-chloro-2-fluoro-benzylamide] — 560-fold lower, 7 nM
- CC(C)(O)COc1ccc2c(c1)c(NC(=O)N1C3CC3C[C@H]1C(=O)NCc1cccc(Cl)c1F)cn2C(N)=O (stereo partly drawn) [Example 386, 1R,3S,5R)-2-Aza-bicyclo[3.1.0]hexane-2,3-dicarboxylic acid 2-{[1-carbamoyl-5-(2-hydroxy-2-methyl-propoxy)-1H-indol-3-yl]-amide}3-(3-chloro-2-fluoro-benzylamide] — 490-fold lower, 8 nM
- CN(C)CCOc1ccc2c(c1)c(NC(=O)N1[C@@H]3C[C@@H]3C[C@H]1C(=O)NCc1cccc(Cl)c1F)cn2C(N)=O [Example 387, 1R,3S,5R)-2-Aza-bicyclo[3.1.0]hexane-2,3-dicarboxylic acid 2-{[1-carbamoyl-5-(2-dimethylamino-ethoxy)-1H-indol-3-yl]-amide}3-(3-chloro-2-fluoro-benzylamide] — 69-fold lower, 57 nM
- NC(=O)n1cc(NC(=O)N2[C@@H]3C[C@@H]3C[C@H]2C(=O)NCc2cccc(Cl)c2F)c2cc(OCCN3CCCC3)ccc21 [Example 388, 1R,3S,5R)-2-Aza-bicyclo[3.1.0]hexane-2,3-dicarboxylic acid 2-{[1-carbamoyl-5-(2-pyrrolidin-1-yl-ethoxy)-1H-indol-3-yl]-amide}3-(3-chloro-2-fluoro-benzylamide] — 140-fold lower, 28 nM
- NC(=O)n1cc(NC(=O)N2[C@@H]3C[C@@H]3C[C@H]2C(=O)NCc2cccc(Cl)c2F)c2cc(OCCn3ccnc3)ccc21 [Example 389, 1R,3S,5R)-2-Aza-bicyclo[3.1.0]hexane-2,3-dicarboxylic acid 2-{[1-carbamoyl-5-(2-imidazol-1-yl-ethoxy)-1H-indol-3-yl]-amide}3-(3-chloro-2-fluoro-benzylamide] — 130-fold lower, 30 nM
- CC(C)(C)OC(=O)COc1ccc2c(c1)c(NC(=O)N1[C@@H]3C[C@@H]3C[C@H]1C(=O)NCc1ccccc1F)cn2C(N)=O [Example 390, (1-Carbamoyl-3-{[(1R,3S,5R)-3-(2-fluoro-benzylcarbamoyl)-2-aza-bicyclo[3.1.0]hexane-2-carbonyl]-amino}-1H-indol-5-yloxy)-acetic acid tert-butyl ester] — 100-fold lower, 38 nM
- NC(=O)n1cc(NC(=O)N2[C@@H]3C[C@@H]3C[C@H]2C(=O)NCc2ccccc2F)c2cc(OCC(=O)O)ccc21 [Example 391, (1-Carbamoyl-3-{[(1R,3S,5R)-3-(2-fluoro-benzylcarbamoyl)-2-aza-bicyclo[3.1.0]hexane-2-carbonyl]-amino}-1H-indol-5-yloxy)-acetic acid] — 130-fold lower, 30 nM
- NC(=O)n1cc(NC(=O)N2C3CC3C[C@H]2C(=O)NCc2cccc(Cl)c2F)c2ccc(O)cc21 (stereo partly drawn) [Example 392, 1R,3S,5R)-2-Aza-bicyclo[3.1.0]hexane-2,3-dicarboxylic acid 2-[(1-carbamoyl-6-hydroxy-1H-indol-3-yl)-amide]3-(3-chloro-2-fluoro-benzylamide] — 560-fold lower, 7 nM
- NC(=O)n1cc(NC(=O)N2C[C@H](F)C[C@H]2C(=O)NCc2cccc(Cl)c2F)c2ccc(O)cc21 [Example 393, 2S,4R)-4-Fluoro-pyrrolidine-1,2-dicarboxylic acid 1-[(1-carbamoyl-6-hydroxy-1H-indol-3-yl)-amide]2-(3-chloro-2-fluoro-benzylamide] — 560-fold lower, 7 nM
- COC(=O)COc1ccc2c(NC(=O)N3[C@@H]4C[C@@H]4C[C@H]3C(=O)NCc3cccc(Cl)c3F)cn(C(N)=O)c2c1 [Example 394, (1-Carbamoyl-3-{[(1R,3S,5R)-3-(3-chloro-2-fluoro-benzylcarbamoyl)-2-aza-bicyclo[3.1.0]hexane-2-carbonyl]-amino}-1H-indol-6-yloxy)-acetic acid methyl ester] — 56-fold lower, 70 nM
- NC(=O)n1cc(NC(=O)N2C3CC3C[C@H]2C(=O)NCc2cccc(Cl)c2F)c2ccc(OCCO)cc21 (stereo partly drawn) [Example 395, 1R,3S,5R)-2-Aza-bicyclo[3.1.0]hexane-2,3-dicarboxylic acid 2-{[1-carbamoyl-6-(2-hydroxy-ethoxy)-1H-indol-3-yl]-amide}3-(3-chloro-2-fluoro-benzylamide] — 160-fold lower, 25 nM
- NC(=O)n1cc(NC(=O)N2C[C@@H](N)C[C@H]2C(=O)Nc2cccc(OC(F)(F)F)c2)c2ccc(OCc3ccccc3)cc21 [Example 398, (2S,4S)-4-Amino-pyrrolidine-1,2-dicarboxylic acid 1-[(6-benzyloxy-1-carbamoyl-1H-indol-3-yl)-amide]2-[(3-trifluoromethoxy-phenyl)-amide]] — within 1.5-fold, 3050 nM
- NC(=O)n1cc(NC(=O)N2CCNC[C@H]2C(=O)NCc2cccc(Cl)c2)c2ccccc21 [Example 399, S)-piperazine-1,2-dicarboxylic acid 1-[(1-carbamoyl-1H-indol-3-yl)-amide]2-(3-chloro-benzylamide] — 2.5-fold lower, 1600 nM
- NCc1ccc(-c2cccc(NC(=O)[C@@H]3CCCN3C(=O)Nc3cn(C(N)=O)c4ccccc34)c2)c(F)c1 [Example 401, (S)-Pyrrolidine-1,2-dicarboxylic acid 2-[(4′-aminomethyl-2′-fluoro-biphenyl-3-yl)-amide]1-[(1-carbamoyl-1H-indol-3-yl)-amide]] — 3.8-fold lower, 1050 nM
- NC[C@H]1CC[C@@H](C(=O)Nc2cccc(OC(F)(F)F)c2)N1C(=O)Nc1cn(C(N)=O)c2ccccc12 [Example 402, (2S,5R)-5-Aminomethyl-pyrrolidine-1,2-dicarboxylic acid 1-[(1-carbamoyl-1H-indol-3-yl)-amide]2-[(3-trifluoromethoxy-phenyl)-amide]] — 13-fold lower, 300 nM
- NC[C@H]1C[C@@H](C(=O)Nc2cccc(OC(F)(F)F)c2)N(C(=O)Nc2cn(C(N)=O)c3ccccc23)C1 [Example 403, (2S,4R)-4-Aminomethyl-pyrrolidine-1,2-dicarboxylic acid 1-[(1-carbamoyl-1H-indol-3-yl)-amide]2-[(3-trifluoromethoxy-phenyl)-amide]] — 4-fold lower, 1000 nM
- NC[C@@H]1C[C@@H](C(=O)Nc2cccc(OC(F)(F)F)c2)N(C(=O)Nc2cn(C(N)=O)c3ccccc23)C1 [Example 404, (2S,4S)-4-Aminomethyl-pyrrolidine-1,2-dicarboxylic acid 1-[(1-carbamoyl-1H-indol-3-yl)-amide]2-[(3-trifluoromethoxy-phenyl)-amide]] — 4-fold lower, 1000 nM
- NC[C@H]1C[C@@H](C(=O)NCc2cccc(Cl)c2F)N(C(=O)Nc2cn(C(N)=O)c3ccccc23)C1 [Example 405, 2S,4R)-4-Aminomethyl-pyrrolidine-1,2-dicarboxylic acid 1-[(1-carbamoyl-1H-indol-3-yl)-amide]2-(3-chloro-2-fluoro-benzylamide] — 13-fold lower, 295 nM
- CN(C)C[C@H]1C[C@@H](C(=O)NCc2cccc(Cl)c2F)N(C(=O)Nc2cn(C(N)=O)c3ccccc23)C1 [Example 406, 2S,4R)-4-Dimethylaminomethyl-pyrrolidine-1,2-dicarboxylic acid 1-[(1-carbamoyl-1H-indol-3-yl)-amide]2-(3-chloro-2-fluoro-benzylamide] — 26-fold lower, 150 nM
- NC[C@@]1(O)C[C@@H](C(=O)NCc2cccc(Cl)c2F)N(C(=O)Nc2cn(C(N)=O)c3ccccc23)C1 [Example 407, 2S,4S)-4-Aminomethyl-4-hydroxy-pyrrolidine-1,2-dicarboxylic acid 1-[(1-carbamoyl-1H-indol-3-yl)-amide]2-(3-chloro-2-fluoro-benzylamide] — 3.8-fold lower, 1050 nM
- NC[C@]1(F)C[C@@H](C(=O)NCc2cccc(Cl)c2F)N(C(=O)Nc2cn(C(N)=O)c3ccccc23)C1 [Example 408, 2S,4R)-4-Aminomethyl-4-fluoro-pyrrolidine-1,2-dicarboxylic acid 1-[(1-carbamoyl-1H-indol-3-yl)-amide]2-(3-chloro-2-fluoro-benzylamide] — 2.8-fold lower, 1400 nM
- NC[C@@]1(F)C[C@@H](C(=O)NCc2cccc(Cl)c2F)N(C(=O)Nc2cn(C(N)=O)c3ccccc23)C1 [Example 409, 2S,4S)-4-Aminomethyl-4-fluoro-pyrrolidine-1,2-dicarboxylic acid 1-[(1-carbamoyl-1H-indol-3-yl)-amide]2-(3-chloro-2-fluoro-benzylamide] — 160-fold lower, 25 nM
- NC(=O)n1cc(NC(=O)N2C[C@@](F)(CNC=O)C[C@H]2C(=O)NCc2cccc(Cl)c2F)c2ccccc21 [Example 410, 2S,4S)-4-Fluoro-4-formylaminomethyl-pyrrolidine-1,2-dicarboxylic acid 1-[(1-carbamoyl-1H-indol-3-yl)-amide]2-(3-chloro-2-fluoro-benzylamide] — 260-fold lower, 15 nM
